8 molecules from PubChem BioAssay (NCI) can be followed below.

Assay in all cases: NCI anticancer screen, dose series, 48 h
The test system of assay [1] is MDA-MB-435.
For assay [2], the system named is NCI-H522 lung.
For assay [3], the system named is HCC-2998 colon.
For assay [4], the system named is COLO 205 colon.
Assay [5] deals with NCI-H226 lung.
Assay [6] has as its system SK-MEL-5 melanoma.
For assay [7], the system named is T-47D breast.
Assay [8] concerns HL-60(TB) leukemia.
Assay [9] has as its system K-562 leukemia.
Assay [10] relates to NCI-H460 lung.

Values joined by “and” are separate entries in the source; they are usually repeats but may differ in a detail not shown here. Identical values can stand only once.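 A five-concentration, 48-hour dose response in 96-well plates underlies each endpoint, interpolated linearly between surrounding concentrations. The concentration for 50% growth inhibition is given as GI50. The concentration for full growth arrest is given as TGI.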

On to `CC(=O)c1ccc2c(c1)N(CCCN1CCN(CCO)CC1)c1ccccc1S2`, for which the GI50 is 1.72 µM in assay [1]; 1.67 µM in [2]; 1.71 µM in assay [3]; 1.74 µM in [4]; 7.14 µM in assay [5]; 1.72 µM in [6]. The GI50 was 1.94 µM in assay [7], 2.12 µM in assay [8], 2.52 µM in assay [9] and 2.05 µM in [10]. Besides, the TGI in assay [1] was 3.52 µM; in assay [2], 3.64 µM; in assay [3] it was 3.2 µM; in assay [4], 3.5 µM; in assay [5], 27.9 µM; in assay [6], 3.14 µM. Besides, the TGI is 5.2 µM in [7], 4.83 µM in [8], > 23 µM in [9] and 4.09 µM in assay [10].
For `COc1ccc(-c2c(C#N)c(N)nc(N3CCOCC3)c2C#N)cc1`, the GI50 in assay [1] is 28.5 µM; in [2], 8.65 µM; in assay [3], 13 µM; in [4], 2.13 µM; in assay [5], 26.3 µM; in [6] it was 19.1 µM. Moreover, the GI50 in assay [7] was 0.828 µM; in assay [8], 20.2 µM; in assay [9] it was 34.5 µM; in [10] it was 29.9 µM. Besides, the TGI was > 100 µM in assay [1]; 43.6 µM in [2]; 31.6 µM in assay [3]; 26.5 µM in assay [4]; > 100 µM in assay [5]; 45.9 µM in [6]. Further, the TGI is 6.14 µM in assay [7], 63.5 µM in assay [8], > 100 µM in assay [9] and > 100 µM in assay [10].
As for `CCCCCCNCCCNc1c2cc(OC)ccc2nc2cccc([N+](=O)[O-])c12`, the GI50 in assay [1] is 0.164 µM; in assay [2], 0.0174 µM; in assay [4], 0.143 µM; in [5], 0.38 µM; in assay [6], 0.135 µM; in assay [7], 0.35 µM. Also, the figures for the GI50 in assay [8], in assay [9] and in assay [10] were 0.155 µM, 0.121 µM and 0.0337 µM, respectively. Also, the TGI was 0.314 µM and 0.321 µM in assay [1]; 0.104 µM and 0.0516 µM in [2]; 0.0643 µM in [3]; 0.648 µM in assay [4]; 0.716 µM and 1.41 µM in assay [5]; 2.01 µM and 0.279 µM in [6]. Moreover, the TGI in [7] is 0.931 µM and 2.49 µM; in [9], 0.489 µM and 0.352 µM; in [10], 0.183 µM.
Take `COc1cc(OCc2cccc(-c3ccccc3)c2C)cc(OC)c1CN1CCCCC1C(=O)NCCOCCOCCN` (stereo not given): the GI50 in [1] was 1.79 µM; in assay [2] it was 1.88 µM; in assay [3], 2.39 µM; in assay [4], 1.82 µM; in [5], 14.7 µM; in [6], 1.76 µM. In addition, the GI50 in assay [7] is 1.77 µM; in assay [8], 1.91 µM; in assay [9], 1.86 µM; in assay [10], 1.83 µM. The TGI in [1] was 3.32 µM; in assay [2], 4.08 µM; in assay [3] it was 5.85 µM; in assay [4], 3.7 µM; in assay [5], 30.9 µM; in assay [6] it was 3.21 µM. Also, the TGI in assay [7] is 3.77 µM; in assay [8] it was 4.07 µM; in [9] it was 4.4 µM; in assay [10], 3.73 µM.
Regarding `COc1cc(F)ccc1-c1cc(Nc2cc(CS(C)(=N)=O)ccn2)ncc1F` (stereo not given), the GI50 is 0.107 µM in assay [1]; 0.248 µM in assay [2]; 0.184 µM in assay [3]; 0.0333 µM in [4]; 0.0375 µM in assay [5]; 0.0385 µM in [6]. In addition, the GI50 is 0.121 µM in assay [7], 0.0284 µM in assay [8], 0.264 µM in [9] and 0.0593 µM in assay [10]. In addition, the TGI is > 100 µM in assay [1]; 2.17 µM in [2]; 0.17 µM in [4]; > 100 µM in assay [5]; 14.3 µM in assay [6]; 0.228 µM in assay [8]. Besides, the TGI in assay [9] and in [10] was > 100 µM in each case.
In the case of `O=C(c1ccc2ccccc2c1)c1nc2cc(F)ccc2[n+]([O-])c1C(F)(F)F`, the GI50 was 15.2 µM in [1]; 13.6 µM in assay [2]; 15.8 µM in assay [3]; 15.9 µM in assay [4]; 22.2 µM in assay [5]; 24.9 µM in assay [6]. Further, the GI50 in [7] is 27.6 µM; in assay [8], 6.68 µM; in [9] it was 2.8 µM; in [10], 18.8 µM. Further, the TGI in assay [1] is 28.6 µM; in assay [2], 29.8 µM; in assay [3] it was 31.3 µM; in assay [4] it was 38.1 µM; in assay [5] it was 46.5 µM; in assay [6] it was 67.6 µM. Further, the TGI in assay [7] was > 100 µM; in [8] it was 24.9 µM; in [9], 15.4 µM; in [10], 38 µM.
On to `C=CC(C)(C)n1cc(C2=C(O)C(=O)C(c3cn(C(C)(C)C=C)c4ccccc34)=C(O)C2=O)c2ccccc21`, for which the TGI in assay [1] came out at 14.7 µM; in assay [2], 13 µM; in [3], 9.8 µM; in [4] it was 30 µM; in assay [5], 14.3 µM; in assay [6], 4.88 µM. For the same molecule, the TGI in assay [7] was 23.1 µM; in [8] it was > 31.5 µM; in assay [9], > 100 µM; in assay [10], 12.6 µM.
Take `COc1ccc2c(c1)C(=O)/C(=C/c1cccc(OCC(=O)Nc3nc(C)c(C)s3)c1)O2`: the GI50 in assay [1] was 2.95 µM; in assay [2] it was 0.0517 µM; in assay [3] it was 1.53 µM; in [4] it was 0.752 µM; in assay [5] it was 1.85 µM; in assay [6], 0.886 µM. Further, the GI50 in assay [7] was 1.99 µM; in assay [8] it was 0.0444 µM; in assay [9] it was 0.24 µM; in [10], 2.71 µM. Moreover, the TGI in [1] worked out at 13.3 µM; in [2], 0.107 µM; in assay [3], 3.54 µM; in assay [4] it was 2.48 µM; in assay [5] it was 5.27 µM; in assay [6], 2.81 µM. Also, the TGI in assay [7] stood at 4.65 µM; in assay [8] it was 0.175 µM; in [10], 8.49 µM.
